Data taken from patent publication US11021493B2, “1,4-thiazine dioxide and 1,2,4-thiadiazine dioxide derivatives as beta-secretase inhibitors and methods of use” (AMGEN INC., priority 2016, dated 2021).

What was measured:
Cathepsin D (CatD) = Cathepsin D (CatD) (Homo sapiens (Human), UniProt P07339); assay: In vitro enzymatic Cathepsin D (CatD) FRET assay; type: biochemical; details: read-out: Cat D Enzyme IC50
BACE1 [1] = molecular target: T1, BACE1 (Homo sapiens (Human), UniProt P56817); assay: In vitro enzymatic BACE1 FRET assay; type: biochemical; details: read-out: BACE1 Enzyme IC50
Target sequence in this assay (P56817 46-501): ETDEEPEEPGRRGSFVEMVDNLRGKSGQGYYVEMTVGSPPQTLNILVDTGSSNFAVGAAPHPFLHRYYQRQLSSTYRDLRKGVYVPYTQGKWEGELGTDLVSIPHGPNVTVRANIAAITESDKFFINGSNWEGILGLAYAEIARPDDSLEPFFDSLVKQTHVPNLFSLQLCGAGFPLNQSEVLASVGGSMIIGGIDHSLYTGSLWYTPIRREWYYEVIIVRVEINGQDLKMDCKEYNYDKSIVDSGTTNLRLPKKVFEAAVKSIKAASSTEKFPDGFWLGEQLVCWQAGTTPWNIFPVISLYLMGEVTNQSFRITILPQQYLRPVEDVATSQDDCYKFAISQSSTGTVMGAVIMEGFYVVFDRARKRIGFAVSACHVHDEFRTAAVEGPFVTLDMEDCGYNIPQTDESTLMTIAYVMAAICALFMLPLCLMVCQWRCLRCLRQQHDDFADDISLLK

BACE1 [2] = molecular target: T1, BACE1; assay: In vitro BACE1 cell-based assay (Aβ40 in conditioned medium of cells stably expressing APP, HTRF)
Target sequence in this assay (P56817 46-501, species assumed): as the sequence (P56817 46-501) above

human recombinant BACE2 = human recombinant BACE2 (Homo sapiens (Human), UniProt Q9Y5Z0); assay: In vitro enzymatic BACE2 FRET assay; type: biochemical; details: read-out: BACE2 Enzyme IC50
[3] = Aβ40 in conditioned media after 24 h incubation

Sequence of human recombinant BACE2 (Q9Y5Z0 63-518): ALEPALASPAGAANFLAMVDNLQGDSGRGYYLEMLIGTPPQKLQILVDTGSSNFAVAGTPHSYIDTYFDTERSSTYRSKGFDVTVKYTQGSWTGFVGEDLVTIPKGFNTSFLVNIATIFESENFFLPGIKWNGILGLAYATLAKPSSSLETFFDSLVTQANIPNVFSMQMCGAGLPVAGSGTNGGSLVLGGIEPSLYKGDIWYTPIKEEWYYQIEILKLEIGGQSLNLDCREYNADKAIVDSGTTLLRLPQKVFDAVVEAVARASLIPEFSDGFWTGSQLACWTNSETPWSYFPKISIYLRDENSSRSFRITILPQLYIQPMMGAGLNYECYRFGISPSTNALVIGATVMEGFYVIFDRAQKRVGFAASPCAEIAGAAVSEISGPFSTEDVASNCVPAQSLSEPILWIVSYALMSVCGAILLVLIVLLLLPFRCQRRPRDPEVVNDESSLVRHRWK
Sequence of Cathepsin D (CatD) (P07339 65-412, species assumed): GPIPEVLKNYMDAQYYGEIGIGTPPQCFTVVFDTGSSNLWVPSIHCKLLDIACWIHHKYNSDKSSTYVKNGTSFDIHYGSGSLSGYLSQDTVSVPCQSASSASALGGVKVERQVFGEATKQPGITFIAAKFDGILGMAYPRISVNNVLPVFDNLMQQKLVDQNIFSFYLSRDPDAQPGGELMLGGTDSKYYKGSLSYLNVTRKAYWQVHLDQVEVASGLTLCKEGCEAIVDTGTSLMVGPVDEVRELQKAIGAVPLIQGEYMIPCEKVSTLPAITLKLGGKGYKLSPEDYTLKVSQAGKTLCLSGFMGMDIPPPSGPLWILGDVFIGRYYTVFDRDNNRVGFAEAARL

IC50 (Cathepsin D (CatD))	IC50 (BACE1 [1])	IC50 (BACE1 [2]; [3])	IC50 (human recombinant BACE2)	Compound	IC50 (BACE1 [2])
89.4 µM	8 nM	10 nM	43 nM	CC1(C)C(N)=N[C@](C)(c2cc(/C=C(\F)c3ccc(C(F)(F)F)cn3)ccc2F)CS1(=O)=O [Example 265, (R,Z)-5-amino-3-(2-fluoro-5-(2-fluoro-2-(5-(trifluoromethyl)pyridin-2-yl)vinyl)phenyl)-3,6,6-trimethyl-3,6-dihydro-2H-1,4-thiazine 1,1-dioxide]	–
11 µM	6 nM	28 nM	7 nM	CN1C(N)=N[C@](C)(c2cc(/C=C(\F)c3ccc(Br)cn3)ccc2F)CS1(=O)=O [Example 247, (R,Z)-3-amino-5-(5-(2-(5-bromopyridin-2-yl)-2-fluorovinyl)-2-fluorophenyl)-2,5-dimethyl-5,6-dihydro-2H-1,2,4-thiadiazine 1,1-dioxide]	–
61.8 µM	60 nM	2220 nM	59 nM	CC1(C)C(N)=N[C@](CF)(c2cc(/C=C(\F)c3cnc(Cl)cn3)ccc2F)CS1(=O)=O [Example 189, (S,Z)-5-amino-3-(5-(2-(5-chloropyrazin-2-yl)-2-fluorovinyl)-2-fluorophenyl)-3-(fluoromethyl)-6,6-dimethyl-3,6-dihydro-2H-1,4-thiazine 1,1-dioxide]	–
96.2 µM	55 nM	229 nM	330 nM	CC1(C)C(N)=N[C@](C)(c2cc(/C=C(\F)c3cnc(OCC(F)(F)C(F)F)cn3)ccc2F)CS1(=O)=O [Example 141, (R,Z)-5-amino-3-(2-fluoro-5-(2-fluoro-2-(5-(2,2,3,3-tetrafluoropropoxy)pyrazin-2-yl)vinyl)phenyl)-3,6,6-trimethyl-3,6-dihydro-2H-1,4-thiazine 1,1-dioxide]	–
65.3 µM	1 nM	4 nM	44 nM	CC#CCOc1cnc(/C(F)=C/c2ccc(F)c([C@@]3(C)N=C(N)[C@@]4(CF)CC[C@@H]3S4(=O)=O)c2)cn1 [Example 137, (1R,4R,5S)-2-amino-4-(5-((Z)-2-(5-(but-2-yn-1-yloxy)pyrazin-2-yl)-2-fluorovinyl)-2-fluorophenyl)-1-(fluoromethyl)-4-methyl-8-thia-3-azabicyclo[3.2.1]oct-2-ene 8,8-dioxide]	–
208 µM	136 nM	142 nM	377 nM	C[C@H](O)COc1cnc(/C(F)=C/c2ccc(F)c([C@]3(C)CS(=O)(=O)C(C)(C)C(N)=N3)c2)cn1 [Example 219, (R)-5-amino-3-(2-fluoro-5-((Z)-2-fluoro-2-(5-((S)-2-hydroxypropoxy)pyrazin-2-yl)vinyl)phenyl)-3,6,6-trimethyl-3,6-dihydro-2H-1,4-thiazine 1,1-dioxide]	–
33.8 µM	7 nM	110 nM	36 nM	CN1C(N)=N[C@](C)(c2cc(/C=C(\F)c3ccc(C#CC4CC4)cn3)ccc2F)CS1(=O)=O [Example 251, (R,Z)-3-amino-5-(5-(2-(5-(cyclopropylethynyl)pyridin-2-yl)-2-fluorovinyl)-2-fluorophenyl)-2,5-dimethyl-5,6-dihydro-2H-1,2,4-thiadiazine 1,1-dioxide]	–
12.7 µM	3 nM	13 nM	16 nM	CN1C(N)=N[C@](C)(c2cc(/C=C(\F)c3cnc(C#CC4CC4)cn3)ccc2F)CS1(=O)=O [Example 248, (R,Z)-3-amino-5-(5-(2-(5-(cyclopropylethynyl)pyrazin-2-yl)-2-fluorovinyl)-2-fluorophenyl)-2,5-dimethyl-5,6-dihydro-2H-1,2,4-thiadiazine 1,1-dioxide]	–
91.3 µM	107 nM	168 nM	75 nM	COc1cnc(/C(F)=C/c2ccc(F)c([C@]3(C)CS(=O)(=O)N(C)C(N)=N3)c2)cn1 [Example 241, (5R)-5-(2-fluoro-5-((Z)-2-fluoro-2-(5-methoxy-2-pyrazinyl)ethenyl)phenyl)-2,5-dimethyl-5,6-dihydro-2H-1,2,4-thiadiazin-3-amine 1,1-dioxide]	–
122 µM	3840 nM	3020 nM	458 nM	CN1C(N)=N[C@](C)(c2cc(/C=C(\F)c3ccc4c(n3)OCCO4)ccc2F)CS1(=O)=O [Example 255, (5R)-5-(5-((Z)-2-(2,3-dihydro[1,4]dioxino[2,3-b]pyridin-6-yl)-2-fluoroethenyl)-2-fluorophenyl)-2,5-dimethyl-5,6-dihydro-2H-1,2,4-thiadiazin-3-amine 1,1-dioxide]	–
100 µM	2 nM	4 nM	9 nM	CC1(C)C(N)=N[C@](C)(c2cc(/C=C(\F)c3ccc(C#N)cn3)ccc2F)CS1(=O)=O [Example 113, (R,Z)-6-(2-(3-(5-amino-3,6,6-trimethyl-1,1-dioxido-3,6-dihydro-2H-1,4-thiazin-3-yl)-4-fluorophenyl)-1-fluorovinyl)nicotinonitrile]	–
90.5 µM	96 nM	1320 nM	671 nM	CC1(C)C(N)=N[C@](C)(c2cc(/C=C(\F)c3cnc(OCCn4cc(Br)cn4)cn3)ccc2F)CS1(=O)=O [Example 156, (R,Z)-5-amino-3-(5-(2-(5-(2-(4-bromo-1H-pyrazol-1-yl)ethoxy)pyrazin-2-yl)-2-fluorovinyl)-2-fluorophenyl)-3,6,6-trimethyl-3,6-dihydro-2H-1,4-thiazine 1,1-dioxide]	–
–	3 nM	1 nM	45 nM	CN1C(N)=N[C@](C)(c2cc(/C=C(\F)c3cnc(OCc4ncco4)cn3)ccc2F)CS1(=O)=O [Example 116, (R,Z)-3-amino-5-(2-fluoro-5-(2-fluoro-2-(5-(oxazol-2-ylmethoxy)pyrazin-2-yl)vinyl)phenyl)-2,5-dimethyl-5,6-dihydro-2H-1,2,4-thiadiazine 1,1-dioxide]	–

Compound	IC50 (Cathepsin D (CatD))	IC50 (BACE1 [1])	IC50 (BACE1 [2]; [3])	IC50 (human recombinant BACE2)	IC50 (BACE1 [2])
CC1(C)C(N)=N[C@](C)(c2cc(/C=C(\F)c3cnc(C#N)cn3)ccc2F)CS1(=O)=O [Example 170, (R,Z)-5-(2-(3-(5-amino-3,6,6-trimethyl-1,1-dioxido-3,6-dihydro-2H-1,4-thiazin-3-yl)-4-fluorophenyl)-1-fluorovinyl)pyrazine-2-carbonitrile]	645 µM	2 nM	5 nM	17 nM	–
Cc1cc(COc2cnc(/C(F)=C/c3cc(F)c(F)c([C@]4(C)CS(=O)(=O)N(C)C(N)=N4)c3)cn2)on1 [Example 221, (R,Z)-3-amino-5-(2,3-difluoro-5-(2-fluoro-2-(5-((3-methylisoxazol-5-yl)methoxy)pyrazin-2-yl)vinyl)phenyl)-2,5-dimethyl-5,6-dihydro-2H-1,2,4-thiadiazine 1,1-dioxide]	–	38 nM	–	197 nM	215 nM
CC1(C)C(N)=N[C@](C)(c2cc(/C=C(\F)c3cnc(Cl)cn3)cc(F)c2F)CS1(=O)=O [Example 193, (R,Z)-5-amino-3-(5-(2-(5-chloropyrazin-2-yl)-2-fluorovinyl)-2,3-difluorophenyl)-3,6,6-trimethyl-3,6-dihydro-2H-1,4-thiazine 1,1-dioxide]	82.3 µM	121 nM	833 nM	–	–
CN1C(N)=N[C@](C)(c2cc(/C=C(\F)c3cnc(OCC#CCO)cn3)ccc2F)CS1(=O)=O [Example 252, (R,Z)-3-amino-5-(2-fluoro-5-(2-fluoro-2-(5-((4-hydroxybut-2-yn-1-yl)oxy)pyrazin-2-yl)vinyl)phenyl)-2,5-dimethyl-5,6-dihydro-2H-1,2,4-thiadiazine 1,1-dioxide]	–	10 nM	7 nM	56 nM	–
C#CCOc1cnc(/C(F)=C/c2ccc(F)c([C@]3(C)CS(=O)(=O)N(C)C(N)=N3)c2)cn1 [Example 112, (R,Z)-3-amino-5-(2-fluoro-5-(2-fluoro-2-(5-(prop-2-yn-1-yloxy)pyrazin-2-yl)vinyl)phenyl)-2,5-dimethyl-5,6-dihydro-2H-1,2,4-thiadiazine 1,1-dioxide]	35.8 µM	3 nM	–	–	8 nM
C[C@]1(c2cc(/C=C(\F)c3ccc(Br)cn3)ccc2F)N=C(N)C2(CF)CC[C@@H]1S2(=O)=O (stereo in doubt) [Example 101, (1R,4R,5S)-2-amino-4-(5-((Z)-2-(5-bromopyridin-2-yl)-2-fluorovinyl)-2-fluorophenyl)-1-(fluoromethyl)-4-methyl-8-thia-3-azabicyclo[3.2.1]oct-2-ene 8,8-dioxide]	–	5 nM	79 nM	13 nM	–
C#CCOc1cnc(/C(F)=C/c2ccc(F)c([C@@]3(C)N=C(N)N(C)S(=O)(=O)C3(C)C)c2)cn1 [Example 183, (R,Z)-3-amino-5-(2-fluoro-5-(2-fluoro-2-(5-(prop-2-yn-1-yloxy)pyrazin-2-yl)vinyl)phenyl)-2,5,6,6-tetramethyl-5,6-dihydro-2H-1,2,4-thiadiazine 1,1-dioxide]	–	13 nM	75 nM	–	–
C#CCOc1cnc(/C(F)=C/c2ccc(F)c([C@@]3(C)N=C(N)C(C)(C)S(=O)(=O)[C@@H]3F)c2)cn1 (single isomer, unassigned) [Example 201]	–	6 nM	–	82 nM	214 nM
C#CCOc1cnc(/C(F)=C/c2ccc(F)c([C@@]3(C)N=C(N)C(C)(C)S(=O)(=O)C3(F)F)c2)cn1 [Example 202, (R,Z)-5-amino-2,2-difluoro-3-(2-fluoro-5-(2-fluoro-2-(5-(prop-2-yn-1-yloxy)pyrazin-2-yl)vinyl)phenyl)-3,6,6-trimethyl-3,6-dihydro-2H-1,4-thiazine 1,1-dioxide]	–	166 nM	–	870 nM	9570 nM
C#CCOc1cnc(/C(F)=C/c2ccc(F)c([C@@]3(C)N=C(N)C(C)(C)S(=O)(=O)[C@H]3F)c2)cn1 (single isomer, unassigned) [Example 200]	–	18 nM	–	86 nM	206 nM
